# Assay results from patent publication US10556865B2, “Synergistic herbicidal composition containing certain pyridine or pyrimidine carboxylic acids and certain cereal and rice herbicides” (Dow AgroSciences, LLC, priority 2007, dated 2020).
# “And” between values parts separate entries of the source, which are not always exact repeats. Equal values may be shown once. Read-outs that look alike come from different tables or passages of the source.
# Legend:
# Format in all cases: in vivo
# [1] = test system: Scirpus maritimus L. (SCPMA); test: Postemergence herbicidal mixtures for weed control in direct seeded rice (greenhouse, visual % injury); conditions: SCPMA
# [2] = test system: Leptochloa chinensis (L.) NEES (LEFCH); test: as above; conditions: for % Injury Ob: LEFCH
# [3] = test system: green foxtail (Setaria viridis L; SETVI); test: Postemergence herbicidal activity of mixtures in cereal crops (greenhouse, visual injury)
# Summary of the method: (§1)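 Plants grown in greenhouse (~14 h photoperiod, ~18 °C day/17 °C night) to 2nd–3rd true leaf, then sprayed with Compound A or B (methyl ester, TEA or K salt) and a second cereal herbicide alone or combined at 187 L/ha; solvent blank controls. Visual injury (0–100%) scored after 20–22 days; Colby expected values calculated.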
# [4] = test system: lamb's-quarters (Chenopodium album L; CHEAL); test: as above
# Summary of the method: as §1
# [5] = test system: Polygonum pensylvanicum L. (POLPY); test: Postemergence herbicidal mixtures for weed control in direct seeded rice (greenhouse, visual % injury); conditions: for % Injury Ob: POLPY
# [6] = test system: ivy-leaved speedwell (Veronica hederifolia L; VERHE); test: Postemergence herbicidal activity of mixtures in cereal crops (greenhouse, visual injury)
# Summary of the method: as §1
# [7] = test system: black mustard (Brassica nigra L; BRSNI); test: as above; conditions: Brassica, post-emergence, read-out: BRSNI Ob
# Summary of the method: as §1
# [8] = test system: cut-leaf geranium (Geranium dissectum L; GERDI); test: as above
# Summary of the method: as §1
# [9] = test system: rigid ryegrass (Lolium rigidum L; LOLRI); test: as above
# Summary of the method: as §1
# [10] = test system: Russian thistle (Salsola iberica L; SASKR); test: as above
# Summary of the method: as §1
# [11] = test system: wild buckwheat (Polygonum convolvulus L; POLCO); test: as above
# Summary of the method: as §1
structure (smiles),measurement,setting,value
"COC(=O)c1nc(-c2ccc(Cl)c(OC)c2F)cc(N)c1Cl [Compound A Methyl, 4-amino-3-chloro-6-(4-chloro-2-fluoro-3-methoxyphenyl)pyridine-2-carboxylic acid methyl ester]",% Injury Ob,[1]; 4.38 g/ha alone,0%
same,% Injury Ob,[1]; 8.75 g/ha alone,10%
same,% Injury Ob,[2]; 17.5 g/ha alone,75% and 50%
same,% Injury Ob,[2]; 35 g/ha alone,90%
same,% Injury LEFCH Ob,[2]; alone 4.38 g/ha,30%
same,% Injury LEFCH Ob,[2]; alone 8.75 g/ha,40%
same,SETVI Ob,"[3]; 17.5 g/ha, Table 1",70%
same,SETVI Ob,"[3]; 35 g/ha, Table 1",75%
same,SETVI Ob,"[3]; 35 g/ha, Table 7",77%
same,SETVI Ob,"[3]; 70 g/ha, Table 1",80%
same,SETVI Ob,"[3]; 70 g/ha, Table 7",82%
same,SETVI Ob,"[3]; 140 g/ha, Table 7",91%
same,CHEAL Ob,[4]; 17.5 g/ha,90%
same,CHEAL Ob,[4]; 35 g/ha,90%
same,CHEAL Ob,[4]; 70 g/ha,95%
same,% Injury Ob,[5]; 4.38 g/ha alone,10%
same,% Injury Ob,[5]; 8.75 g/ha alone,50%
same,% Injury POLPY Ob,[5]; alone 4.38 g/ha,50%
same,% Injury POLPY Ob,[5]; alone 8.75 g/ha,60%
"COc1c(Cl)ccc(-c2cc(N)c(Cl)c(C(=O)O)n2)c1F [Compound A TEA, 4-amino-3-chloro-6-(4-chloro-2-fluoro-3-methoxyphenyl)pyridine-2-carboxylic acid]",VERHE Ob,[6]; 8.75 g/ha,10%
same,VERHE Ob,[6]; 17.5 g/ha,20%
same,VERHE Ob,[6]; 35 g/ha,50%
same,VERHE Ob,[6]; 70 g/ha,75%
same,pest or weed control at 8.75 g/ha,[7]; 8.75 g/ha alone,70%
same,pest or weed control at 8.75 g/ha,[7]; 8.75 g/ha,70%
same,pest or weed control at 17.5 g/ha,[7]; 17.5 g/ha alone,91%
same,pest or weed control at 17.5 g/ha,[7]; 17.5 g/ha,91%
same,pest or weed control at 35 g/ha,[7]; 35 g/ha alone,98%
same,pest or weed control at 35 g/ha,[7]; 35 g/ha,98%
same,pest or weed control at 70 g/ha,[7]; 70 g/ha alone,99%
same,pest or weed control at 70 g/ha,[7]; 70 g/ha,99%
same,GERDI Ob,[8]; 8.75 g/ha,50%
same,GERDI Ob,[8]; 8.75 g/ha alone,50% and 38%
same,GERDI Ob,[8]; 17.5 g/ha,55%
same,GERDI Ob,[8]; 17.5 g/ha alone,55% and 50%
same,GERDI Ob,[8]; 35 g/ha,65%
same,GERDI Ob,[8]; 35 g/ha alone,65% and 80%
same,GERDI Ob,[8]; 70 g/ha alone,78% and 85%
same,LOLRI Ob,"[9]; 35 g/ha, Table 12",0%
same,LOLRI,"[9]; 35 g/ha, Table 13",0%
same,LOLRI Ob,"[9]; 35 g/ha, Table 17",0%
same,LOLRI,"[9]; 35 g/ha, Table 19",0%
same,LOLRI Ob,"[9]; 70 g/ha, Table 12",0%
same,LOLRI,"[9]; 70 g/ha, Table 13",0%
same,LOLRI Ob,"[9]; 70 g/ha, Table 17",0%
same,LOLRI,"[9]; 70 g/ha, Table 19",0%
same,LOLRI Ob,"[9]; 140 g/ha, Table 12",10%
same,LOLRI,"[9]; 140 g/ha, Table 13",10%
same,LOLRI Ob,"[9]; 140 g/ha, Table 17",10%
same,LOLRI,"[9]; 140 g/ha, Table 19",10%
same,SASKR Ob,[10]; 8.75 g/ha alone,80%
same,SASKR Ob,[10]; 17.5 g/ha alone,84%
same,SASKR Ob,[10]; 35 g/ha alone,87%
same,SASKR Ob,[10]; 70 g/ha alone,93%
same,POLCO Ob,[11]; 8.75 g/ha,90%
same,POLCO Ob,[11]; 8.75 g/ha alone,90% and 76%
same,POLCO Ob,[11]; 17.5 g/ha,93%
same,POLCO Ob,[11]; 17.5 g/ha alone,93% and 88%
same,POLCO Ob,[11]; 35 g/ha,98%
same,POLCO Ob,[11]; 35 g/ha alone,98% and 96%
same,POLCO Ob,[11]; 70 g/ha,99%
same,POLCO Ob,[11]; 70 g/ha alone,99%
